Patent US20070082934A1, “Substituted 4-aryloxy and 4-arylsulfanyl-phenyl-2-aminothiazoles as inhibitors of cell proliferation” (priority 2003, published 2007)
“Also recorded” adds a separate entry of the source. Where two headings read alike, the source gives them in different places.

Tests used:
MCF7 cells = assay: Inhibition of breast cell proliferation, SRB assay, 48 hour incubation; type: cell-based, human; conditions: for inhibition at 100 µM: Homo sapiens
Protocol: MCF7 cells were treated with compounds or vehicle (DMSO). […] Percent inhibition of growth at 100 μM was determined and GI50 values were calculated from log-dose response curves as previously described ([…] et al., Cancer Res., 2003, 63:3211-3220).

BT-549 = assay: NCI anti-tumor screen, SRB assay, 48 hour exposure; type: cell-based, human; conditions: BT-549 breast cancer cell line
Protocol: (§1) Compounds were tested at the National Cancer Institute's Developmental Therapeutics Program, in duplicate, against 60 human tumor cell lines at a minimum of five concentrations at 10-fold dilutions: A 48 hour continuous drug exposure protocol was used, and a sulforhodamine B (SRB) protein assay was used to estimate cell viability or growth.
(§2) Upon completion of the synthesis, the thiazole compounds 17-24 and 27-30 were submitted to the NCI's antitumor screen (see Monks et al., J. Natl. Cancer Inst., 1991, 83:757b 766; Bray and Wickstrom, Biotechniques, 1996, 21:5:780-782) and the results against human breast cancer cell lines are shown in Table 2 as GI50 values.

MCF7 = assay: NCI anti-tumor screen, SRB assay, 48 hour exposure; type: cell-based, human; conditions: MCF7 breast cancer cell line
Protocol: as §1, §2

MDA-MB-231/ATCC = assay: NCI anti-tumor screen, SRB assay, 48 hour exposure; type: cell-based, human; conditions: MDA-MB-231/ATCC breast cancer cell line
Protocol: as §1, §2

MDA-MB-435 = assay: NCI anti-tumor screen, SRB assay, 48 hour exposure; type: cell-based, human; conditions: estrogen-negative cell line MDA-MB-435
Protocol: as §1, §2

NCI/ADR-RES = assay: NCI anti-tumor screen, SRB assay, 48 hour exposure; type: cell-based, human; conditions: adriamycin-resistant cell line
Protocol: as §1, §2

T-47D = assay: NCI anti-tumor screen, SRB assay, 48 hour exposure; type: cell-based, human; conditions: estrogen-positive cell line T-47D
Protocol: as §1, §2

HS 578T = assay: NCI anti-tumor screen, SRB assay, 48 hour exposure; type: cell-based, human; conditions: estrogen-negative HS 578T cell line
Protocol: as §1, §2

[1] = test system: human breast cancer cell lines; assay: NCI anti-tumor screen, breast cancer cell line panel as a whole; type: cell-based; conditions: for selectivity among breast cancer cell lines: comparison of GI50 values across cell lines; for growth inhibition of human breast tumor cells, in words: estrogen-positive and negative breast cancer cell lines
Protocol: as §1, §2

[2] = test system: 60 human tumor cell lines; assay: NCI anti-tumor screen, all NCI cell lines; type: cell-based; conditions: NCI cell lines other than breast (FIG. 3)
Protocol: FIG. 3 is a graphic representation of a GI50 comparison for compound 17 (4-[4′-(4-Chlorophenoxy)-phenyl]-thiazol-2-yl ammonium iodide) for all NCI cell lines. The ordinate represents growth inhibitor activity and the abscissa indicates the type of tumor as well as each cell line treated with compound 17. L=leukemia; NSCLC Non-small cell lung cancer; C=Colon; CNS=central nervous system; M=Melanoma; O=Ovarian; R=Renal; P=Prostate; B=Breast.
as §1

SMILES | inhibition at 100 µM (MCF7 cells) | melting point | % Inhibition of MCF7 cells at 100 μM (MCF7 cells) | GI50 (BT-549; Homo sapiens) | GI50 (HS 578T; Homo sapiens) | GI50 (MCF7; Homo sapiens) | GI50 (MDA-MB-231/ATCC; Homo sapiens) | GI50 (MDA-MB-435; Homo sapiens) | GI50 (NCI/ADR-RES; Homo sapiens, NCI/ADR-RES) | GI50 (T-47D; Homo sapiens, T47D) | selectivity among breast cancer cell lines [1] | other results
COc1ccc(Oc2ccc(-c3csc(N)n3)cc2)cc1.I [Compound 21, 4-[4′-(4-Methoxyphenoxy)-phenyl]-thiazol-2-yl ammonium iodide] | 24% | 204 to 207 °C | – | – | – | – | – | – | – | – | – | –
I.Nc1nc(-c2ccc(Oc3ccccc3Cl)cc2)cs1 [Compound 19, 4-[4-(2′-Chlorophenoxy)-phenyl]-thiazol-2-yl ammonium iodide] | – | – | 87% | – | – | – | – | – | – | – | – | GI50 (BT-549): 12.8 µM; GI50 (MCF7): 27.4 µM; GI50 (MDA-MB-231/ATCC): 10.5 µM; GI50 (MDA-MB-435): 14.8 µM; GI50 (NCI/ADR-RES): 25.8 µM; GI50 (T-47D): 16.4 µM
CCOC(=O)c1cccc(Oc2ccc(-c3csc(N)n3)cc2)c1.I [Compound 25, 4-[4-(3′-Ethoxycarbonyl-phenoxy)-phenyl]-thiazol-2-yl ammonium iodide] | – | – | 84% | – | – | – | – | – | – | – | – | –
I.Nc1nc(-c2ccc(Oc3ccc(Oc4ccccc4)cc3)cc2)cs1 [Compound 24, 4-[4′-(4-Phenoxy-phenoxy)-phenyl]-thiazol-2-yl ammonium iodide] | 81% | 137 to 140 °C | – | 16.1 µM | 27.8 µM | 35.1 µM | 12.6 µM | 22.7 µM | 35.9 µM | 4.9 µM | – | –
Nc1nc(-c2ccc(Oc3ccccc3)cc2)cs1 [Compound 16, 4-(4′-Phenoxyphenyl)-thiazol-2-yl ammonium iodide] | 81% | – | – | – | – | – | – | – | – | – | – | –
Cc1ccc(Sc2ccc(-c3csc(N)n3)cc2)cc1.I [Compound 30, 4-(4′p-Tolylsulfanyl-phenyl)-thiazol-2-yl ammonium iodide] | 96% | 182 to 185 °C | – | 25.7 µM | 59.6 µM | 25.9 µM | > 100 µM | 1.4 µM | 64.6 µM | 68 µM | active only against estrogen receptor-negative breast cancer | –
I.Nc1nc(-c2ccc(Sc3ccc(Cl)c(Cl)c3)cc2)cs1 [Compound 28, 4-[4-(3′,4′-Dichloro-phenylsulfanyl)-phenyl]-thiazol-2-yl ammonium iodide] | – | – | 54% | – | – | – | – | – | – | – | selectivity for the adriamycin-resistant cell line | GI50 (BT-549): 5.95 µM; GI50 (MCF7): 5.68 µM; GI50 (MDA-MB-231/ATCC): 3.73 µM; GI50 (MDA-MB-435): 1.11 µM; GI50 (NCI/ADR-RES): 3.37 µM; GI50 (T-47D): 2.79 µM; GI50 ([1]; all breast cancer cell lines except HS 578T, read-out: GI50 values in all cell lines except HS 578T): 1 to 5 µM; growth inhibition of human breast tumor cells, in words [1]: low micromolar growth inhibition of most human breast tumor cells
Cc1ccc(Oc2ccc(-c3csc(N)n3)cc2)cc1.I [Compound 22, 4-[4′-(p-Toluoxy)phenyl]-thiazol-2-yl ammonium iodide] | 98% | 118 to 120 °C | – | – | 22.7 µM | 17.2 µM | 14.1 µM | 11.8 µM | 18.2 µM | 0.54 µM | – | –
I.Nc1nc(-c2ccc(Oc3ccc(Cl)c(Cl)c3)cc2)cs1 [Compound 20, 4-[4′-(3,4-Dichlorophenoxy)-phenyl]-thiazol-2-yl ammonium iodide] | 47% | 202 to 205 °C | – | 1.91 µM | 2 µM | 3.02 µM | 2.29 µM | 0.759 µM | 1.29 µM | 20.9 µM | selectivity for the adriamycin-resistant cell line | growth inhibition of human breast tumor cells, in words [1]: low micromolar growth inhibition of most human breast tumor cells; also recorded: low micromolar
I.Nc1nc(-c2ccc(Oc3ccc(Cl)cc3)cc2)cs1 [Compound 17, 4-[4′-(4-Chlorophenoxy)-phenyl]-thiazol-2-yl ammonium iodide] | 85% | – | – | > 100 µM | > 100 µM | > 100 µM | > 100 µM | > 100 µM | > 100 µM | 0.917 µM | – | GI50 ([1]; Homo sapiens, T47D, all breast cancer cell lines except T-47D, read-out: GI50 in all cell lines except T-47D): > 100 µM; activity against other types of cancer [2]: not effective against other types of cancer
I.Nc1nc(-c2ccc(Sc3ccccc3)cc2)cs1 [Compound 26, 4-(4′-Phenylsulfanyl-phenyl)-thiazol-2-yl ammonium iodide] | 79% | 129 to 132 °C | – | – | – | – | – | – | – | – | – | –
I.Nc1nc(-c2ccc(Sc3ccc(Cl)cc3)cc2)cs1 [Compound 27, 4-[4-(4′-Chloro-phenylsulfanyl)-phenyl]-thiazol-2-yl ammonium iodide] | – | – | 89% | – | – | – | – | – | – | – | active only against estrogen receptor-negative breast cancer | GI50 (BT-549): 15.3 µM; GI50 (HS 578T): 18.8 µM; GI50 (MCF7): 21.6 µM; GI50 (MDA-MB-231/ATCC): 12.4 µM; GI50 (MDA-MB-435): 1.49 µM; GI50 (NCI/ADR-RES): 17.5 µM; GI50 (T-47D): 24.4 µM
I.Nc1nc(-c2ccc(Oc3ccc(-c4ccccc4)cc3)cc2)cs1 [Compound 23, 4-[4′-(Biphenyl-4-yloxy)-phenyl]-thiazol-2-yl ammonium iodide] | 53% | 253 to 254 °C | – | 10.4 µM | 18.8 µM | 14.3 µM | 12.6 µM | 18.6 µM | 17.4 µM | 3.91 µM | – | –
COc1ccc(Sc2ccc(-c3csc(N)n3)cc2)cc1.I [Compound 29, 4-[4-(4′-Methoxy-phenylsulfanyl)-phenyl]-thiazol-2-yl ammonium iodide] | – | – | 11% | – | – | – | – | – | – | – | – | –
I.Nc1nc(-c2ccc(Oc3cccc(Cl)c3)cc2)cs1 [Compound 18, 4-[4-(3′-Chlorophenoxy)-phenyl]-thiazol-2-yl ammonium iodide] | – | – | 100% | – | – | – | – | – | – | – | active only against estrogen receptor-negative breast cancer | GI50 (BT-549): 14.3 µM; GI50 (HS 578T): 19.7 µM; GI50 (MCF7): 14.6 µM; GI50 (MDA-MB-231/ATCC): 4.8 µM; GI50 (MDA-MB-435): 2.1 µM; GI50 (NCI/ADR-RES): 13.2 µM; GI50 (T-47D): 14 µM
